Test results reported in patent publication US8574563B2 (Bristol-Myers Squibb Company, priority 2006, dated 2013).

Each molecule was assayed on HCV 1b-377-neo replicon cells (assay: HCV replicon assay, HCV 1b-377-neo replicon cells (1b FRET)). Details: HCV 1b-377-neo replicon cells; HCV 1b genotype; read-out: EC50 range against HCV 1b (Table 2, Range).
Assay type: cell-based, Hepatitis C virus genotype 1b
In short: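 Compounds were tested in genotype 1b subgenomic replicon cells carrying a neomycin marker, alongside a matched replicon line with an NS5A Y2065H substitution that confers resistance to a reference NS5A inhibitor.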

Compared with `COC(=O)NC(C(=O)N1CCCC1c1ncc(-c2ccc(-c3ccc(-c4cnc(C5CCCN5C(=O)C(c5csc6ccccc56)N(C)C)[nH]4)cc3)cc2)[nH]1)c1ccccc1` [Example 84-50, methyl ((1R)-2-((2S)-2-(5-(4′-(2-((2S)-1-(1-benzothiophen-3-yl(dimethylamino)acetyl)-2-pyrrolidinyl)-1H-imidazol-5-yl)-4-biphenylyl)-1H-imidazol-2-yl)-1-pyrrolidinyl)-2-oxo-1-phenylethyl)carbamate], `CN(C)CC(=O)N[C@@H](C(=O)N1CCC[C@H]1c1ncc(-c2ccc(-c3ccc(-c4c[nH]c([C@@H]5CCCN5C(=O)[C@H]5CCCO5)n4)cc3)cc2)[nH]1)c1ccccc1` [Example 120-8, N^2,N^2-dimethyl-N-((1R)-2-oxo-1-phenyl-2-((2S)-2-(5-(4′-(2-((2S)-1-((2R)-tetrahydro-2-furanylcarbonyl)-2-pyrrolidinyl)-1H-imidazol-4-yl)-4-biphenylyl)-1H-imidazol-2-yl)-1-pyrrolidinyl)ethyl) glycinamide] is higher in EC50: 0.001 to 0.999 nM for the first, 1 to 99 nM for the second. The first is the more potent here.

Same assay, conditions: Hepatitis C virus, HCV 1b-377-neo replicon cells; HCV 1b genotype; read-out: EC50 range against HCV 1b (Table 2, Range)

First: COC(=O)N[C@H](C(=O)N1CC(F)(F)C[C@H]1c1ncc(-c2ccc(-c3ccc(-c4cnc([C@@H]5CC(F)(F)CN5C(=O)[C@@H](NC(=O)OC)C(C)C)[nH]4)cc3)cc2)[nH]1)C(C)C [OL-7, methyl ((1S)-1-(((2S)-2-(4-(4′-(2-((2S)-4,4-difluoro-1-((2S)-2-((methoxycarbonyl)amino)-3-methylbutanoyl)-2-pyrrolidinyl)-1H-imidazol-4-yl)-4-biphenylyl)-1H-imidazol-2-yl)-4,4-difluoro-1-pyrrolidinyl)carbonyl)-2-methylpropyl)carbamate]
Second: COC[C@H](NC(=O)OC)C(=O)N1CCC[C@H]1c1ncc(-c2ccc(-c3ccc(-c4cnc([C@@H]5CCCN5C(=O)[C@@H](NC(=O)OC)C(C)C)[nH]4)cc3)cc2)[nH]1 [Example M71, methyl ((1S)-2-((2S)-2-(5-(4′-(2-((2S)-1-(N-(methoxycarbonyl)-L-valyl)-2-pyrrolidinyl)-1H-imidazol-5-yl)-4-biphenylyl)-1H-imidazol-2-yl)-1-pyrrolidinyl)-1-(methoxymethyl)-2-oxoethyl)carbamate]
The EC50 of the first is lower: 0.001 to 0.999 nM for the first, 1 to 99 nM for the second. The first is the more potent here.

`COC(=O)N[C@H](C(=O)N1CCC[C@H]1c1ncc(-c2ccc(-c3ccc(-c4cnc([C@@H]5CCCN5C(=O)CNCC(C)C)[nH]4)cc3)cc2)[nH]1)C(C)C` [LS23, methyl ((1S)-1-(((2S)-2-(5-(4′-(2-((2S)-1-(N-isobutylglycyl)-2-pyrrolidinyl)-1H-imidazol-5-yl)-4-biphenylyl)-1H-imidazol-2-yl)-1-pyrrolidinyl)carbonyl)-2-methylpropyl)carbamate] and `COC(=O)N[C@@H](C(=O)N1CCC[C@H]1c1ncc(-c2ccc(-c3ccc(-c4cnc([C@@H]5CCCN5C(=O)c5cscn5)[nH]4)cc3)cc2)[nH]1)c1ccccc1` [Example 84-44, methyl ((1R)-2-oxo-1-phenyl-2-((2S)-2-(5-(4′-(2-((2S)-1-(1,3-thiazol-4-ylcarbonyl)-2-pyrrolidinyl)-1H-imidazol-5-yl)-4-biphenylyl)-1H-imidazol-2-yl)-1-pyrrolidinyl)ethyl)carbamate] fall in the same range of EC50: 0.001 to 0.999 nM for the first, 0.001 to 0.999 nM for the second.

`CC(C)[C@H](Nc1ncccn1)C(=O)N1[C@@H]2C[C@@H]2C[C@H]1c1ncc(-c2ccc(-c3ccc(-c4cnc([C@@H]5C[C@H]6C[C@H]6N5C(=O)[C@@H](Nc5ncccn5)C(C)C)[nH]4)cc3)cc2)[nH]1` [Example M144, N,N′-(4,4′-biphenyldiylbis(1H-imidazole-4,2-diyl(1R,3S,5R)-2-azabicyclo[3.1.0]hexane-3,2-diyl((2S)-3-methyl-1-oxo-1,2-butanediyl)))di(2-pyrimidinamine)] and `CN(C)[C@@H](C(=O)N1CCC[C@H]1c1ncc(-c2ccc(-c3ccc(-c4cnc([C@@H]5CCCN5C(=O)[C@H]5CCCO5)[nH]4)cc3)cc2)[nH]1)c1ccccc1` [Example 86, (1R)-N,N-dimethyl-2-oxo-1-phenyl-2-((2S)-2-(5-(4′-(2-((2S)-1-((2R)-tetrahydro-2-furanylcarbonyl)-2-pyrrolidinyl)-1H-imidazol-5-yl)-4-biphenylyl)-1H-imidazol-2-yl)-1-pyrrolidinyl)ethanamine] fall in the same range of EC50: 0.001 to 0.999 nM for the first, 0.001 to 0.999 nM for the second.

`COC(=O)N[C@H](C(=O)N1CCC[C@H]1c1nc(-c2ccc(-c3ccc(-c4c[nH]c([C@@H]5CCCN5C(=O)[C@@H](NC(=O)OC5CCOCC5)C(C)C)n4)cc3)cc2)c[nH]1)C(C)C` [Example F55, tetrahydro-2H-pyran-4-yl ((1S)-1-(((2S)-2-(4-(4′-(2-((2S)-1-(N-(methoxycarbonyl)-L-valyl)-2-pyrrolidinyl)-1H-imidazol-4-yl)-4-biphenylyl)-1H-imidazol-2-yl)-1-pyrrolidinyl)carbonyl)-2-methylpropyl)carbamate] and `COC(=O)N[C@H](C(=O)N1CCC[C@H]1c1nc(-c2ccc(-c3ccc(-c4cnc([C@@H]5CCCN5C(=O)[C@H](NC(=O)OC)C5CCOCC5)[nH]4)cc3)cc2)c[nH]1)C(C)C` [Example F57, methyl ((1S)-1-(((2S)-2-(4-(4′-(2-((2S)-1-((2R)-2-((methoxycarbonyl)amino)-2-(tetrahydro-2H-pyran-4-yl)acetyl)-2-pyrrolidinyl)-1H-imidazol-5-yl)-4-biphenylyl)-1H-imidazol-2-yl)-1-pyrrolidinyl)carbonyl)-2-methylpropyl)carbamate] fall in the same range of EC50: 0.001 to 0.999 nM for the first, 0.001 to 0.999 nM for the second.

`CNC(=O)c1nc([C@@H]2CCCN2C(=O)[C@@H](c2ccccc2)N2CCCCC2)[nH]c1-c1ccc(-c2ccc(-c3cnc([C@@H]4CCCN4C(=O)[C@@H](c4ccccc4)N4CCCCC4)[nH]3)cc2)cc1` [Example J27, N-methyl-2-((2S)-1-((2R)-2-phenyl-2-(1-piperidinyl)acetyl)-2-pyrrolidinyl)-5-(4′-(2-((2S)-1-((2R)-2-phenyl-2-(1-piperidinyl)acetyl)-2-pyrrolidinyl)-1H-imidazol-5-yl)-4-biphenylyl)-1H-imidazole-4-carboxamide] and `O=C(CCN1CCCCC1)N1CCC[C@H]1c1ncc(-c2ccc(-c3ccc(-c4cnc([C@@H]5CCCN5C(=O)[C@@H](c5ccccc5)N5CCCCC5)[nH]4)cc3)cc2)[nH]1` [Example 107-7, 1-(3-oxo-3-((2S)-2-(5-(4′-(2-((2S)-1-((2R)-2-phenyl-2-(1-piperidinyl)acetyl)-2-pyrrolidinyl)-1H-imidazol-5-yl)-4-biphenylyl)-1H-imidazol-2-yl)-1-pyrrolidinyl)propyl)piperidine] fall in the same range of EC50: 0.001 to 0.999 nM for the first, 0.001 to 0.999 nM for the second.

`COC(=O)N[C@@H](C(=O)N1CCC[C@H]1c1ncc(-c2ccc(-c3ccc(-c4cnc([C@@H]5CCCN5C(=O)[C@H]5CCCN5C)[nH]4)cc3)cc2)[nH]1)c1ccccc1` [Example 51, methyl ((1R)-2-((2S)-2-(5-(4′-(2-((2S)-1-(1-methyl-D-prolyl)-2-pyrrolidinyl)-1H-imidazol-5-yl)-4-biphenylyl)-1H-imidazol-2-yl)-1-pyrrolidinyl)-2-oxo-1-phenylethyl)carbamate] and `CC(=O)N1CCC[C@H]1c1ncc(-c2ccc(-c3ccc(-c4cnc([C@@H]5CCCN5C(=O)[C@@H](c5ccccc5)N5CCCCC5)[nH]4)cc3)cc2)[nH]1` [Example 107-29, 1-1((1R)-2-((2S)-2-(5-(4′-(2-((2S)-1-acetyl-2-pyrrolidinyl)-1H-imidazol-5-yl)-4-biphenylyl)-1H-imidazol-2-yl)-1-pyrrolidinyl)-2-oxo-1-phenylethyl) piperidine] fall in the same range of EC50: 0.001 to 0.999 nM for the first, 0.001 to 0.999 nM for the second.

Compared with `COC(=O)N[C@H](C(=O)N1C[C@H](O)C[C@H]1c1ncc(-c2ccc(-c3ccc(-c4cnc([C@@H]5C[C@@H](O)CN5C(=O)[C@@H](NC(=O)OC)C5CC5)[nH]4)cc3)cc2)[nH]1)C1CC1` [JG-6, dimethyl (4,4′-biphenyldiylbis(1H-imidazole-5,2-diyl((2S,4R)-4-hydroxy-2,1-pyrrolidinediyl)((1S)-1-cyclopropyl-2-oxo-2,1-ethanediyl)))biscarbamate], `CN(C)[C@@H](C(=O)N1CCC[C@H]1c1ncc(-c2ccc(-c3ccc(-c4cnc([C@@H]5CCCN5C(=O)Cc5ccccc5F)[nH]4)cc3)cc2)[nH]1)c1ccccc1` [Example 94-51, (1R)-2-((2S)-2-(5-(4′-(2-((2S)-1-((2-fluorophenyl)acetyl)-2-pyrrolidinyl)-1H-imidazol-5-yl)-4-biphenylyl)-1H-imidazol-2-yl)-1-pyrrolidinyl)-N,N-dimethyl-2-oxo-1-phenylethanamine] is lower in EC50: 1 to 99 nM for the first, 0.001 to 0.999 nM for the second.

First: CCN(CC)[C@@H](C(=O)N1CC(F)(F)C[C@H]1c1nc(-c2ccc(-c3ccc(-c4cnc([C@@H]5CCCN5C(=O)[C@@H](c5ccccc5)N(CC)CC)[nH]4)c(F)c3)cc2)c[nH]1)c1ccccc1 [Example J14e.1, (1R)-2-((2S)-2-(4-(4′-(2-((2S)-1-((2R)-2-(diethylamino)-2-phenylacetyl)-4,4-difluoro-2-pyrrolidinyl)-1H-imidazol-4-yl)-3-fluoro-4-biphenylyl)-1H-imidazol-2-yl)-1-pyrrolidinyl)-N,N-diethyl-2-oxo-1-phenylethanamine]
Second: CCN(CC)[C@@H](C(=O)N1CCC[C@H]1c1ncc(-c2ccc(-c3ccc(-c4cnc([C@@H]5CCCN5C(=O)[C@@H](c5ccccc5)N(C)C)[nH]4)cc3)cc2)[nH]1)c1ccccc1 [Example M52, (1R)-2-((2S)-2-(5-(4′-(2-((2S)-1-((2R)-2-(diethylamino)-2-phenylacetyl)-2-pyrrolidinyl)-1H-imidazol-5-yl)-4-biphenylyl)-1H-imidazol-2-yl)-1-pyrrolidinyl)-N,N-dimethyl-2-oxo-1-phenylethanamine]
The EC50 of the first is lower: 0.001 to 0.999 nM for the first, 1 to 99 nM for the second.

`CN(C)[C@@H](C(=O)N1CCC[C@H]1c1ncc(-c2ccc(-c3ccc(-c4cnc([C@@H]5CCCN5C(=O)C(c5ccccc5)c5ccccc5)[nH]4)cc3)cc2)[nH]1)c1ccccc1` [Example 94-36, (1R)-2-((2S)-2-(5-(4′-(2-((2S)-1-(diphenylacetyl)-2-pyrrolidinyl)-1H-imidazol-5-yl)-4-biphenylyl)-1H-imidazol-2-yl)-1-pyrrolidinyl)-N,N-dimethyl-2-oxo-1-phenylethanamine] showed an EC50 of 0.001 to 0.999 nM.
